According to patent publication US8680159B2, “Bradykinin 1 receptor modulating compounds” (Gruenenthal GmbH, priority 2010, dated 2014):

These compounds were tested against T1, human B1R receptor (CHO K1 cells stably transfected with the human B1R gene) (Homo sapiens, UniProt P46663) (assay: Functional study on the bradykinin receptor 1 (B1R), Ca2+ fluorescence (Fluo-4) FLIPR/Novostar assay, hB1R cells). Details: CHO-K1, read-out: % inhibition (human B1R) at 10 μM.
T1 construct: expressed in transfected cells; host or cells: CHO K1 cells (Chinese hamster ovary), stably transfected
T1 sequence (P46663 1-353): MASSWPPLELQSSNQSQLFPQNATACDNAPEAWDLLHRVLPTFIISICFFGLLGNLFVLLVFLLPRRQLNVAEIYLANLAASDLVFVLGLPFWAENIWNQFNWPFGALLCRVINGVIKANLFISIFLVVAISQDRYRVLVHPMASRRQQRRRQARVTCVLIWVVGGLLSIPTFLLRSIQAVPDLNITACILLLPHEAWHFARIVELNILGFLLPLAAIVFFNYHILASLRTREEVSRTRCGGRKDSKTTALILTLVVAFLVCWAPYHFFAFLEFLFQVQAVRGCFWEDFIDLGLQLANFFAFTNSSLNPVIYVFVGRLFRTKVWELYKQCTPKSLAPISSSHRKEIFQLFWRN
Type: cell-based
How it was run: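 Test compounds (10 μM) were added first and the Ca2+ rise was scored as % activation against Lys-Des-Arg9-bradykinin (≥50 nM, human) or Des-Arg9-bradykinin (≥1 μM, rat). After 6-20 min, the matching agonist was given at its EC80, and % inhibition relative to maximal achievable inhibition was calculated.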

Row | SMILES | inhibition at 10 µM [%]
1 | Cc1cc(N2CCC(N(C)C(=O)c3ccc4c(c3)[C@H](NS(=O)(=O)CC(C)C)CC4)CC2)nc(C)n1 [Example H-191, (3R)-N-[1-(2,6-Dimethyl-pyrimidin-4-yl)-piperidin-4-yl]-N-methyl-3-[(2-methyl-propylsulfonyl)amino]-2,3-dihydro-1H-indene-5-carboxylic acid amide] | 100
2 | Cc1cc(N2CCC(N(C)C(=O)c3ccc4c(c3)[C@H](N(C(=O)c3cccc(F)c3Cl)C(C)C)CC4)CC2)nc(C)n1 [Example H-196, (3R)-3-[(2-Chloro-3-fluoro-benzoyl)-isopropyl-amino]-N-[1-(2,6-dimethyl-pyrimidin-4-yl)-piperidin-4-yl]-N-methyl-2,3-dihydro-1H-indene-5-carboxylic acid amide] | 98
3 | Cc1cc(N2CCC(N(C)C(=O)c3cc4c(cc3F)CC[C@H]4N(C(=O)c3ccc(F)cc3Cl)C(C)C)CC2)nc(C)n1 [Example H-198, (3R)-3-[(2-Chloro-4-fluoro-benzoyl)-isopropyl-amino]-N-[1-(2,6-dimethyl-pyrimidin-4-yl)-piperidin-4-yl]-6-fluoro-N-methyl-2,3-dihydro-1H-indene-5-carboxylic acid amide] | 76
4 | Cc1cc(N2CCC(N(C)C(=O)c3ccc4c(c3)[C@H](N(C(=O)c3ccc(F)cc3Cl)C(C)C)CC4)CC2)nc(C)n1 [Example H-199, (3R)-3-[(2-Chloro-4-fluoro-benzobenzoyl)-isopropyl-amino]-N-[1-(2,6-dimethyl-pyrimidin-4-yl)-piperidin-4-yl]-N-methyl-2,3-dihydro-1H-indene-5-carboxylic acid amide] | 94
5 | Cc1cc(N2CCC(N(C)C(=O)c3ccc4c(c3)[C@H](N(C(=O)c3cccnc3C(F)(F)F)C(C)C)CC4)CC2)nc(C)n1 [Example H-207] | 44
6 | Cc1cc(N2CCC(N(C)C(=O)c3cc4c(cc3F)CC[C@H]4N(C(=O)c3cccnc3C(F)(F)F)C(C)C)CC2)nc(C)n1 [Example H-209, N-[(1R)-6-[[1-(2,6-Dimethyl-pyrimidin-4-yl)-piperidin-4-yl]-metyl-carbamoyl]-5-fluoro-2,3-dihydro-1H-inden-1-yl]-N-isopropyl-2-(trifluoromethyl)-pyridine-3-carboxylic acid amide] | 10
7 | Cc1cc(N2CCC(N(C)C(=O)c3ccc4c(c3)[C@H](N(C)C(=O)c3cc(F)ccc3Cl)CC4)CC2)nc(C)n1 [Example H-210, (3R)-3-[(2-Chloro-5-fluoro-benzoyl)-methyl-amino]-N-[1-(2,6 dimethyl-pyrimidin-4-yl)-piperidin-4-yl]-N-methyl-2,3-dihydro-1H-indene-5-carboxylic acid amide] | 99
8 | Cc1cc(N2CCC(N(C)C(=O)c3ccc4c(c3)[C@H](N(C(=O)c3cc(F)ccc3Cl)C(C)C)CC4)CC2)nc(C)n1 [Example H-212, (3R)-3-[(2-Chloro-5-fluoro-benzoyl)-isopropyl-amino]-N-[1-(2,6-dimethyl-pyrimidin-4-yl)-piperidin-4-yl]-N-methyl-2,3-dihydro-1H-indene-5-carboxylic acid amide] | 82
9 | Cc1cc(N2CCC(N(C)C(=O)c3cc4c(cc3F)CC[C@H]4NC(=O)c3ccccc3Cl)CC2)nc(C)n1 [Example H-213, (3R)-3-[(2-Chloro-benzoyl)amino]-N-[1-(2,6-dimethyl-pyrimidin-4-yl)-piperidin-4-yl]-6-fluoro-N-methyl-2,3-dihydro-1H-indene-5-carboxylic acid amide] | 100
10 | Cc1cc(N2CCC(CCNC(=O)c3ccc4c(c3)[C@H](NC(=O)c3ccccc3Cl)CC4)CC2)nc(C)n1 [Example H-215, (3R)-3-[(2-Chloro-benzoyl)amino]-N-[2-[1-(2,6-dimethyl-pyrimidin-4-yl)-piperidin-4-yl]-ethyl]-2,3-dihydro-1H-indene-5-carboxylic acid amide] | 95
11 | CCN(C(=O)c1ccc2c(c1)[C@H](NC(=O)c1ccccc1Cl)CC2)C1CCN(c2cc(C)nc(C)n2)CC1 [Example H-216, (3R)-3-[(2-Chloro-benzoyl)amino]-N-[1-(2,6-dimethyl-pyrimidin-4-yl)-piperidin-4-yl]-N-ethyl-2,3-dihydro-1H-indene-5-carboxylic acid amide] | 98
12 | CN(C(=O)c1ccc2c(c1)[C@H](NC(=O)c1ccccc1Cl)CC2)C1CCN(c2cc[nH]c(=O)c2)CC1 [Example H-219, (3R)-3-[(2-Chloro-benzoyl)amino]-N-methyl-N-[1-(2-oxo-1H-pyridin-4-yl)-piperidin-4-yl]-2,3-dihydro-1H-indene-5-carboxylic acid amide] | 79
13 | Cc1cc(N2CCC(N(C)C(=O)c3ccc4c(c3)[C@H](NC(=O)CC(C)C(C)C)CC4)CC2)ccn1 (stereo partly drawn) [Example H-222, (3R)-3-(3,4-Dimethyl-pentanoylamino)-N-methyl-N-[1-(2-methyl-pyridin-4-yl)-piperidin-4-yl]-2,3-dihydro-1H-indene-5-carboxylic acid amide] | 99

The remaining lines, values ahead:

Row | inhibition at 10 µM [%] | SMILES
14 | 100 | Cc1cc(N2CCC(N(C)C(=O)c3ccc4c(c3)[C@H](N(C)C(=O)c3cccc(F)c3Cl)CC4)CC2)nc(C)n1 [Example H-195, (3R)-3-[(2-Chloro-3-fluoro-benzoyl)-methyl-amino]-N-[1-(2,6 dimethyl-pyrimidin-4-yl)-piperidin-4-yl]-N-methyl-2,3-dihydro-1H-indene-5-carboxylic acid amide]
15 | 100 | CCN(C(=O)c1cccc(F)c1Cl)[C@@H]1CCc2ccc(C(=O)N(C)C3CCN(c4cc(C)nc(C)n4)CC3)cc21 [Example H-197, (3R)-3-[(2-Chloro-3-fluoro-benzoyl)-ethyl-amino]-N-[1-(2,6-dimethyl-pyrimidin-4-yl)-piperidin-4-yl]-N-meihyl-2,3-dihydro-1H-indene-5-carboxylic acid amide]
16 | 100 | CC(C)N(C(=O)c1cccc(F)c1Cl)[C@@H]1CCc2ccc(C(=O)N(C)C3CCN(c4ccncc4)CC3)cc21 [Example H-202, (3R)-3-[(2-Chloro-3-fluoro-benzoyl)-isopropyl-amino]-N-methyl-N-(1-pyridin-4-yl-piperidin-4-yl)-2,3-dihydro-1H-indene-5-carboxylic acid amide]
17 | 100 | CCN(C(=O)c1cccc(F)c1Cl)[C@@H]1CCc2ccc(C(=O)N(C)C3CCN(c4ccncc4)CC3)cc21 [Example H-203, (3R)-3-[(2-Chloro-3-fluoro-benzoyl)-ethyl-amino]-N-methyl-N-(1-pyridin-4-yl-piperidin-4-yl)-2,3-dihydro-1H-indene-5-carboxylic acid amide]
18 | 100 | CC(C)N(C(=O)c1ccc(F)cc1Cl)[C@@H]1CCc2ccc(C(=O)N(C)C3CCN(c4ccncc4)CC3)cc21 [Example H-204, (3R)-3-[(2-Chloro-4-fluoro-benzoyl)-isopropyl-amino]-N-methyl-N-(1-pyridin-4-yl-piperidin-4-yl)-2,3-dihydro-1H-indene-5-carboxylic acid amide]
19 | 100 | CN(C(=O)c1ccc2c(c1)[C@H](N(C)C(=O)c1cccc(F)c1Cl)CC2)C1CCN(c2ccncc2)CC1 [Example H-205, (3R)-3-[(2-Chloro-3-fluoro-benzoyl)-methyl-amino]-N-methyl-N-(1-pyridin-4-yl-piperidin-4-yl)-2,3-dihydro-1H-indene-5-carboxylic acid amide]
20 | 94 | CC(C)N(C(=O)c1ccc(F)cc1Cl)[C@@H]1CCc2cc(F)c(C(=O)N(C)C3CCN(c4ccncc4)CC3)cc21 [Example H-206, (3R)-3-[(2-Chloro-4-fluoro-benzoyl)-isopropyl-amino]-6-fluoro-N-methyl-N-(1-pyridin-4-yl-piperidin-4-yl)-2,3-dihydro-1H-indene-5-carboxylic acid amide]
21 | 45 | CC(C)N(C(=O)c1cccnc1C(F)(F)F)[C@@H]1CCc2ccc(C(=O)N(C)C3CCN(c4ccncc4)CC3)cc21 [Example H-208, N-Isopropyl-N-[(1R)-6-[methyl-(1-pyridin-4-yl-piperidin-4-yl)-carbamoyl]-2,3-dihydro-1H-inden-1-yl]-2-(trifluoromethyl)-pyridine-3-carboxylic acid amide]
22 | 99 | CCN(C(=O)c1cc(F)ccc1Cl)[C@@H]1CCc2ccc(C(=O)N(C)C3CCN(c4cc(C)nc(C)n4)CC3)cc21 [Example H-211, (3R)-3-[(2-Chloro-5-fluoro-benzoyl)-ethyl-amino]-N-[1-(2,6-dimethyl-pyrimidin-4-yl)-piperidin-4-yl]-N-meihyl-2,3-dihydro-1H-indene-5-carboxylic acid amide]
23 | 100 | CNc1nccc(N2CCC(N(C)C(=O)c3ccc4c(c3)[C@H](NC(=O)c3ccccc3Cl)CC4)CC2)n1 [Example H-214, (3R)-3-[(2-Chloro-benzoyl)amino]-N-methyl-N-[1-(2-methylamino-pyrimidin-4-yl)-piperidin-4-yl]-2,3-dihydro-1H-indene-5-carboxylic acid amide]
24 | 99 | CCN(C(=O)c1c(F)cccc1Cl)[C@@H]1CCc2ccc(C(=O)N(C)C3CCN(c4ccncc4)CC3)cc21 [Example H-220]
25 | 99 | CCN(C(=O)c1cc(F)ccc1Cl)[C@@H]1CCc2ccc(C(=O)N(C)C3CCN(c4ccncc4)CC3)cc21 [Example H-221, (3R)-3-[(2-Chloro-5-fluoro-benzoyl)-ethyl-amino]-N-methyl-N-(1-pyridin-4-yl-pipendin-4-yl)-2,3-dihydro-1H-indene-5-carboxylic acid amide]
